Biological target: T1, Aβ40 and Aβ42 peptides in plasma and brain of TgCRND8 mice (Homo sapiens, UniProt P05067)
T1 construct: ELISA using Human Aβ40 and Aβ42 Fluorometric ELISA kits from Biosource; from tissue; host or cells: plasma and brain homogenate of TgCRND8 transgenic mice (hAPP transgene)
Experiment: Short term treatment in adult transgenic CRND8 mice overexpressing βAPP: Aβ levels in plasma and brain by ELISA
Type: in vivo, Mouse
Settings: TgCRND8 mice
Excerpt: Transgenic mice, […]8, expressing the human amyloid precursor protein (hAPP) develop a pathology resembling Alzheimer's disease. In particular, high levels of Aβ40 and Aβ 42 have been documented in the plasma and the brain of these animals at 8-9 weeks of age, followed by early accumulation of amyloid plaques similar to the senile plaques observed in AD patients. These animals also display progressive cognitive deficits that parallel the appearance of degenerative changes. See, […], et al., J. Biol. Chem. 276, 21562-70 (2001). The short term therapeutic effect of 19 compounds of the invention was studied. […] The following abbreviations are used to designate these animals from the 3rd and 4th generation backcross in the present protocol: TgCRND8-2.B6C3F1(N3); TgCRND8-2.B6C3F1(N4). Baseline animals (Group 1) consisted of naive TgCRND8-2. B6C3F1(N3) at 11±1 weeks of age. These mice were used to determine the Aβ levels in the plasma and brain of naive transgenic animals at the initiation of treatment. […] At the end of the treatment periods, plasma and perfused brains were collected for quantification of Aβ levels. […] Plasma samples were immediately frozen and stored at -80° C. pending analysis. The brains were removed, frozen, and stored at -80° C. awaiting analysis. […] Samples were spun at 15000 g for 20 minutes and the supernatants were transferred to fresh tubes. […] The tubes were vortexed for 30 seconds and frozen at -80° C. […] Samples were thawed at room temperature, sonicated at 80° C. for 15 minutes and frozen again. This cycle was repeated 3 times to ensure homogeneity and samples were returned to -80° C. pending analysis. Aβ levels were evaluated in plasma and brain samples by ELISA using Human Aβ40 and Aβ42 Fluorometric ELISA kits from Biosource (Cat. […] In short, samples were thawed at room temperature, sonicated for 5 minutes at 80° C. (sonication for brain homogenates; no sonication for plasma samples) and kept on ice. Aβ peptides were captured using 100 μl of the diluted samples to the plate and incubated without shaking at 4° C. overnight. The samples were aspirated and the wells were rinsed 4 times with wash buffer obtained from the Biosource ELISA kit. The anti-Aβ40 or anti-Aβ42 rabbit polyclonal antiserum (specific for the Aβ40 or Aβ42 peptide) was added (100 μl) and the plate was incubated at room temperature for 2 hours with shaking. The wells were aspirated and washed 4 times before adding 100 μl of the alkaline phosphatase labeled anti-rabbit antibody and incubating at room temperature for 2 hours with shaking. The plates were then rinsed 5 times and the fluorescent substrate (100 μl) was added to the plate. The plate was incubated for 35 minutes at room temperature and the plate was read using a titer plate reader at an excitation wavelength of 460 nm and emission at 560 nm Compounds were scored based on their ability to modulate levels of Aβ peptides in the plasma and the cerebral soluble/insoluble levels in the brain. Levels of Aβ observed in the plasma and brain of treated animals were normalized using values from vehicle-treated (water) or methylcellulose-treated control groups and ranked according to the strength of the pharmacological effect. Increases in the levels of Aβ peptides are indicated using “+” symbols, while decreases in the levels of Aβ peptides are indicated using “-” symbols. The strongest effects are recorded as “+++” or “- - -” while the weakest are shown as “+” or “-”.

[1] = Brain Homogenate Vehicle Group, Day 14, 250 mg/kg daily
[2] = Brain Homogenate Vehicle Group, Day 28, 250 mg/kg daily
[3] = Plasma Vehicle Group, Day 14, 250 mg/kg daily subcutaneous, normalized to water vehicle control
[4] = Brain Homogenate Methylcellulose Group, Day 14, 250 mg/kg daily oral
[5] = Brain Homogenate Methylcellulose Group, Day 28, 250 mg/kg daily oral
[6] = Plasma Methylcellulose Group, Day 28, 250 mg/kg daily oral in 1% methylcellulose, normalized to methylcellulose control

CC(C)(C)NCCCS(=O)(=O)O [BX, 3-(t-butyl)amino-1-propanesulfonic acid] was tested, and the “Brain homogenate Aβ40 Change Insoluble” value [1] was “−−− (decreases of 39% or more are scored as “− − −”)”, the “Brain homogenate Aβ40 Change Soluble” value [1] was “− (Decreases in the levels of Aβ of 5 to 19% are scored as “−”)” and the “Brain homogenate Aβ42 Change Insoluble” value [1] was “−−− (decreases of 39% or more are scored as “− − −”)”. For the same molecule, the “Brain homogenate Aβ42 Change Soluble” value [1] was “−− (decreases of 20 to 38% are scored as “− −”)”, the “Brain homogenate Aβ40 Change Insoluble” value [2] was “−−− (decreases of 39% or more are scored as “− − −”)” and the “Brain homogenate Aβ40 Change Soluble” value [2] was “−−− (decreases of 39% or more are scored as “− − −”)”. For the same molecule, the “Brain homogenate Aβ42 Change Insoluble” value [2] was “− (Decreases in the levels of Aβ of 5 to 19% are scored as “−”)”, the “Brain homogenate Aβ42 Change Soluble” value [2] was “−− (decreases of 20 to 38% are scored as “− −”)” and the “Plasma Aβ40 Change” value [3] was “+++ (increases of 70% or higher are scored as “+ + +”)”. The “Plasma Aβ42 Change” value [3] was “++ (increases of 40 to 69% are scored as “++”)” and the “Plasma Aβ40 Change” value (Plasma Vehicle Group, Day 28, 250 mg/kg daily subcutaneous, normalized to water vehicle control) was “+++ (increases of 70% or higher are scored as “+ + +”)”.

For O=S(=O)(O)CCCNC1C2CC3CC(C2)CC1C3 (stereo not drawn) [BZ, 3-(2-adamantyl)amino-1-propanesulfonic acid], the “Brain homogenate Aβ40 Change Insoluble” value [4] was “−−− (decreases of 39% or more are scored as “− − −”)”, the “Brain homogenate Aβ42 Change Insoluble” value [4] was “−− (decreases of 20 to 38% are scored as “− −”)” and the “Brain homogenate Aβ40 Change Insoluble” value [5] was “−− (decreases of 20 to 38% are scored as “− −”)”. The “Brain homogenate Aβ40 Change Soluble” value [5] was “−− (decreases of 20 to 38% are scored as “− −”)”, the “Brain homogenate Aβ42 Change Insoluble” value [5] was “−− (decreases of 20 to 38% are scored as “− −”)” and the “Plasma Aβ40 Change” value (Plasma Methylcellulose Group, Day 14, 250 mg/kg daily oral in 1% methylcellulose, normalized to methylcellulose control) was “+ (increases in the levels of Aβ (relative to untreated control) of 20 to 39% are scored as “+”)”. For the same molecule, the “Plasma Aβ40 Change” value [6] was “++ (increases of 40 to 69% are scored as “++”)” and the “Plasma Aβ42 Change” value [6] was “++ (increases of 40 to 69% are scored as “++”)”.

O=S(=O)(O)CCCNC12CC3CC(CC(C3)C1)C2 [BW, 3-(1-adamantyl)amino-1-propanesulfonic acid] was tested, and the “Brain homogenate Aβ40 Change Insoluble” value [4] was “−−− (decreases of 39% or more are scored as “− − −”)”, the “Brain homogenate Aβ42 Change Insoluble” value [4] was “−−− (decreases of 39% or more are scored as “− − −”)” and the “Brain homogenate Aβ42 Change Soluble” value [4] was “−− (decreases of 20 to 38% are scored as “− −”)”. For the same molecule, the “Brain homogenate Aβ40 Change Insoluble” value [5] was “− (Decreases in the levels of Aβ of 5 to 19% are scored as “−”)”, the “Brain homogenate Aβ40 Change Soluble” value [5] was “− (Decreases in the levels of Aβ of 5 to 19% are scored as “−”)” and the “Brain homogenate Aβ42 Change Insoluble” value [5] was “−− (decreases of 20 to 38% are scored as “− −”)”. The “Brain homogenate Aβ42 Change Soluble” value [5] was “− (Decreases in the levels of Aβ of 5 to 19% are scored as “−”)” and the “Plasma Aβ42 Change” value [6] was “+ (increases in the levels of Aβ (relative to untreated control) of 20 to 39% are scored as “+”)”.

From patent publication US8642801B2 (BHI Limited Partnership, priority 2003, dated 2014)
